Source: the NIST ThermoML archive (doi:10.1016/j.jct.2017.12.002)
± gives the expanded uncertainty stated by the source.

Assays:
[1] = 101.33 kPa, Liquid, Vibrating tube method
[2] = refractive index (Na D-line) (dimensionless); conditions: 101.33 kPa, Liquid, Standard Abbe refractometry

For `CCC(C)CC` [3-methylpentane], the mass density ([1]; 293.15 K) was 664.225 ± 0.17 kg/m3, the mass density ([1]; 295.15 K) was 662.39 ± 0.18 kg/m3 and the mass density ([1]; 297.15 K) was 660.589 ± 0.17 kg/m3. It also gave a mass density ([1]; 298.15 K) of 659.736 ± 0.18 kg/m3, a mass density ([1]; 298.6 K) of 659.308 ± 0.18 kg/m3 and a refractive index ([2]; 293.15 K) of 1.37654 ± 0.00041. It also gave a refractive index ([2]; 298.15 K) of 1.37387 ± 0.00041.
With `C=CCCCC` [hex-1-ene] the mass density ([1]; 293.15 K) was 673.227 ± 0.17 kg/m3, the mass density ([1]; 295.15 K) was 670.871 ± 0.17 kg/m3 and the mass density ([1]; 297.15 K) was 668.986 ± 0.17 kg/m3. For the same compound, the mass density ([1]; 298.15 K) was 668.033 ± 0.17 kg/m3, the mass density ([1]; 301.35 K) was 664.998 ± 0.17 kg/m3 and the refractive index ([2]; 293.15 K) was 1.38796 ± 0.00041. For the same compound, the refractive index ([2]; 298.15 K) was 1.3851 ± 0.00041.
